# Experimental data published in patent US20150105252A1, “SUBSTITUTED PYRAZOLES AS HERBICIDES” (E I DU PONT DE NEMOURS AND COMPANY, priority 2013, published 2015).
# Experiments:
# wheat [1] = assay: Test A preemergence; assay type: in vivo, Triticum aestivum; conditions: preemergence
# Summary of the method: (§1)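 Ratings express plant response from 0 (no effect) to 100 (complete control), judged visually against untreated controls after approximately 10 days in the greenhouse. Preemergence applications were made as directed soil sprays onto seeded loam–sand mix, and postemergence applications onto 2–10 cm plants at one- to two-leaf stage.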
# johnsongrass = assay: Test C preemergence; assay type: in vivo, Sorghum halepense; conditions: for Johnsongrass plant response rating / Plant response rating, Johnsongrass: preemergence; for Plant response rating, Johnsongrass: 125 g ai/ha, scale 0 to 100, 0 = no effect, 100 = complete control
# Summary of the method: (§2)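 Seeds sown in loam–sand blend and treated preemergence with test chemicals in non-phytotoxic solvent with surfactant; postemergence plants in peat-based medium, treated at 2–18 cm (1- to 4-leaf stage). Greenhouse 13 to 15 days, then visual rating versus controls, 0 (no effect) to 100 (complete control).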
# velvetleaf = assay: Test A preemergence; assay type: in vivo, Abutilon theophrasti; conditions: preemergence
# Summary of the method: as §1
# wheat [2] = assay: Test C preemergence; assay type: in vivo, Triticum aestivum; conditions: for Wheat plant response rating / Plant response rating, Wheat: preemergence; for Plant response rating, Wheat: 125 g ai/ha, scale 0 to 100, 0 = no effect, 100 = complete control
# Summary of the method: as §2
# waterhemp = assay: Test C postemergence; assay type: in vivo, Amaranthus rudis; conditions: for Plant response rating (scale of 0 to 100 where 0 is no effect and 100 is complete control), Waterhemp: Postemergence, 31 g ai/ha, visually evaluated after 13 to 15 days; for Waterhemp plant response rating / Plant response rating, Waterhemp: postemergence; for Waterhemp plant response rating: scale 0 to 100
# Summary of the method: as §2
# crabgrass, large [3] = assay: Test A preemergence; assay type: in vivo, Digitaria sanguinalis; conditions: preemergence
# Summary of the method: as §1
# blackgrass = assay: Test C postemergence; assay type: in vivo, Alopecurus myosuroides; conditions: for Plant response rating (scale of 0 to 100 where 0 is no effect and 100 is complete control), Blackgrass: Postemergence, 31 g ai/ha, visually evaluated after 13 to 15 days; for Blackgrass plant response rating / Plant response rating, Blackgrass: postemergence; for Blackgrass plant response rating: 62 g ai/ha, scale 0 to 100
# Summary of the method: as §2
# crabgrass, large [4] = assay: Test C postemergence; assay type: in vivo, Digitaria sanguinalis; conditions: for Plant response rating (scale of 0 to 100 where 0 is no effect and 100 is complete control), Crabgrass, Large: Postemergence, 31 g ai/ha, visually evaluated after 13 to 15 days; for Crabgrass, Large plant response rating / Plant response rating, Crabgrass, Large: postemergence; for Crabgrass, Large plant response rating: 62 g ai/ha, scale 0 to 100
# Summary of the method: as §2
# ragweed = assay: Test C preemergence; assay type: in vivo, Ambrosia elation; conditions: for Ragweed plant response rating / Plant response rating, Ragweed: preemergence; for Plant response rating, Ragweed: 125 g ai/ha, scale 0 to 100, 0 = no effect, 100 = complete control
# Summary of the method: as §2
# foxtail, giant [5] = assay: Test C postemergence; assay type: in vivo, Setaria faberii; conditions: for Plant response rating (scale of 0 to 100 where 0 is no effect and 100 is complete control), Foxtail, Giant: Postemergence, 31 g ai/ha, visually evaluated after 13 to 15 days; for Foxtail, Giant plant response rating / Plant response rating, Foxtail, Giant: postemergence; for Foxtail, Giant plant response rating: 62 g ai/ha, scale 0 to 100
# Summary of the method: as §2
# sedge, umbrella = assay: Test B flood; assay type: in vivo, Cyperus difformis; conditions: 250 g ai/ha, visual rating on 0 to 100 scale (0 no effect, 100 complete control), 13 to 15 days
# Summary of the method: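 Plants were grown to the 2-leaf stage, then pots were flooded to 3 cm above the soil and compounds were applied directly into the paddy water. Water depth was held for the whole test; after 13 to 15 days in a greenhouse, injury was visually rated against untreated controls (0 = no effect, 100 = complete control).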
# corn = assay: Test C preemergence; assay type: in vivo, Zea mays; conditions: for Corn plant response rating / Plant response rating, Corn: preemergence; for Plant response rating, Corn: 125 g ai/ha, scale 0 to 100, 0 = no effect, 100 = complete control
# Summary of the method: as §2
# foxtail, giant [6] = assay: Test A postemergence; assay type: in vivo, Setaria faberii
# Summary of the method: as §1
# [7] = 125 g ai/ha, visual injury, 0 to 100 scale, approx. 10 days
# [8] = 500 g ai/ha, visual injury after approx. 10 days, 0 to 100 scale (0 no effect, 100 complete control)
# [9] = 31 g ai/ha, visual rating, scale 0 to 100 (0 no effect, 100 complete control), 13 to 15 days
# [10] = 62 g ai/ha, scale 0 to 100 (0 no effect, 100 complete control), 13 to 15 days
# [11] = 250 g ai/ha, scale 0 to 100 (0 no effect, 100 complete control)
# [12] = 125 g ai/ha, scale 0 to 100, 0 no effect, 100 complete control
# [13] = Postemergence, 500 g ai/ha, 0 to 100 scale (0 no effect, 100 complete control)
# [14] = postemergence, 125 g ai/ha, about 10 days, visual rating on 0 to 100 scale (0 no effect, 100 complete control)
# [15] = 125 g ai/ha, visual injury approx. 10 days after treatment
# [16] = 250 g ai/ha, scale 0 to 100, 0 is no effect, 100 is complete control
compound,measurement,setting,value
CCONC(=O)c1cc(CC)n(Cc2ccnc(OC(F)F)c2)n1 [Compound 131],Wheat plant response rating,wheat [1]; [7],90
same,Wheat plant response rating,wheat [1]; [8],100
same,"Plant response rating (scale of 0 to 100), Johnsongrass","johnsongrass; Preemergence, 250 g ai/ha",95
same,Johnsongrass plant response rating,johnsongrass; [9],20
same,Johnsongrass plant response rating,johnsongrass; [10],65
same,"Plant response rating, Johnsongrass",johnsongrass; 13 to 15 days,85
same,Velvetleaf plant response rating,velvetleaf; [7],90
same,Velvetleaf plant response rating,velvetleaf; [8],100
same,"Plant response rating (scale of 0 to 100), Wheat","wheat [2]; Preemergence, 250 g ai/ha",95
same,Wheat plant response rating,wheat [2]; [9],45
same,Wheat plant response rating,wheat [2]; [10],85
same,"Plant response rating, Wheat",wheat [2]; 13 to 15 days,50
same,"Plant response rating (scale of 0 to 100 where 0 is no effect and 100 is complete control), Waterhemp",waterhemp,55
same,Waterhemp plant response rating,waterhemp; 62 g ai/ha,55
same,"Plant response rating, Waterhemp",waterhemp; [11],80
same,"Plant response rating, Waterhemp",waterhemp; [12],65
same,"Crabgrass, Large plant response rating","crabgrass, large [3]; [7]",100
same,"Crabgrass, Large plant response rating","crabgrass, large [3]; [8]",100
same,"Plant response rating (scale of 0 to 100 where 0 is no effect and 100 is complete control), Blackgrass",blackgrass,5
same,Blackgrass plant response rating,blackgrass,5
same,"Plant response rating, Blackgrass",blackgrass; [11],20
same,"Plant response rating, Blackgrass",blackgrass; [12],10
same,"Plant response rating (scale of 0 to 100 where 0 is no effect and 100 is complete control), Crabgrass, Large","crabgrass, large [4]",5
same,"Crabgrass, Large plant response rating","crabgrass, large [4]",5
same,"Plant response rating, Crabgrass, Large","crabgrass, large [4]; [11]",40
same,"Plant response rating, Crabgrass, Large","crabgrass, large [4]; [12]",15
same,"Plant response rating (scale of 0 to 100), Ragweed","ragweed; Preemergence, 250 g ai/ha",100
same,Ragweed plant response rating,ragweed; [9],75
same,Ragweed plant response rating,ragweed; [10],85
same,"Plant response rating, Ragweed",ragweed; 13 to 15 days,100
same,"Plant response rating (scale of 0 to 100 where 0 is no effect and 100 is complete control), Foxtail, Giant","foxtail, giant [5]",5
same,"Foxtail, Giant plant response rating","foxtail, giant [5]",10
same,"Plant response rating, Foxtail, Giant","foxtail, giant [5]; [11]",50
same,"Plant response rating, Foxtail, Giant","foxtail, giant [5]; [12]",40
same,"Plant response rating, Sedge, Umbrella","sedge, umbrella",90
same,"Plant response rating (scale of 0 to 100), Corn","corn; Preemergence, 250 g ai/ha",98
same,Corn plant response rating,corn; [9],40
same,Corn plant response rating,corn; [10],90
same,"Plant response rating, Corn",corn; 13 to 15 days,95
same,"Foxtail, Giant plant response rating","foxtail, giant [6]; [13]",90
same,"Foxtail, Giant plant response rating","foxtail, giant [6]; [14]",80
O=C(NC1CC1)c1cc(CCCl)n(Cc2ccnc(C(F)(F)F)c2)n1 [Compound 144],Wheat plant response rating (0 to 100 scale),wheat [1]; [15],50
same,Wheat plant response rating,wheat [1]; [8],100
same,Johnsongrass plant response rating,johnsongrass; [9],0
same,Johnsongrass plant response rating,johnsongrass; [10],35
same,"Plant response rating, Johnsongrass",johnsongrass; 13 to 15 days,75
same,Johnsongrass plant response rating,johnsongrass; [16],100
same,Velvetleaf plant response rating (0 to 100 scale),velvetleaf; [15],50
same,Velvetleaf plant response rating,velvetleaf; [8],100
same,Wheat plant response rating,wheat [2]; [9],5
same,Wheat plant response rating,wheat [2]; [10],40
same,"Plant response rating, Wheat",wheat [2]; 13 to 15 days,80
same,Wheat plant response rating,wheat [2]; [16],90
same,"Plant response rating (scale of 0 to 100 where 0 is no effect and 100 is complete control), Waterhemp",waterhemp,65
same,"Plant response rating, Waterhemp",waterhemp; [11],75
same,Waterhemp plant response rating,waterhemp,75
same,"Crabgrass, Large plant response rating (0 to 100 scale)","crabgrass, large [3]; [15]",100
same,"Crabgrass, Large plant response rating","crabgrass, large [3]; [8]",100
same,"Plant response rating (scale of 0 to 100 where 0 is no effect and 100 is complete control), Blackgrass",blackgrass,20
same,Blackgrass plant response rating,blackgrass,5
same,"Plant response rating, Blackgrass",blackgrass; [11],35
same,"Plant response rating, Blackgrass",blackgrass; [12],30
same,"Plant response rating (scale of 0 to 100 where 0 is no effect and 100 is complete control), Crabgrass, Large","crabgrass, large [4]",10
same,"Crabgrass, Large plant response rating","crabgrass, large [4]",10
same,"Plant response rating, Crabgrass, Large","crabgrass, large [4]; [11]",55
same,"Plant response rating, Crabgrass, Large","crabgrass, large [4]; [12]",10
same,Ragweed plant response rating,ragweed; [9],85
same,Ragweed plant response rating,ragweed; [10],90
same,"Plant response rating, Ragweed",ragweed; 13 to 15 days,95
same,Ragweed plant response rating,ragweed; [16],98
same,"Plant response rating (scale of 0 to 100 where 0 is no effect and 100 is complete control), Foxtail, Giant","foxtail, giant [5]",5
same,"Foxtail, Giant plant response rating","foxtail, giant [5]",10
same,"Plant response rating, Foxtail, Giant","foxtail, giant [5]; [11]",25
same,"Plant response rating, Foxtail, Giant","foxtail, giant [5]; [12]",15
same,"Plant response rating, Sedge, Umbrella","sedge, umbrella",95
same,Corn plant response rating,corn; [9],5
same,Corn plant response rating,corn; [10],20
same,"Plant response rating, Corn",corn; 13 to 15 days,60
same,Corn plant response rating,corn; [16],85
same,"Foxtail, Giant plant response rating","foxtail, giant [6]; [13]",90
same,"Foxtail, Giant plant response rating","foxtail, giant [6]; [14]",90
